Holding throughout (assay type): cell-based
The subject of experiment [1] is adalimumab producing cell line 2. Nature of the experiment: WCX-10 quantification of acidic species of adalimumab, bioreactor culture, cell line 2. Particulars: Example 4; 0.15 g/l 2DDG; control 29.8%. Here is the method: Two adalimumab producing cell lines were employed in the studies covered here. Upon thaw, cells were cultured in their respective growth media in a combination of vented non-baffled shake flasks (Corning) on a shaker platform at 110 RPM (cell line 1) and 140 RPM (cell line 2) and 10 L or 20 L wave bags (GE). Cultures were propagated in a 35° C., 5% CO2 incubator for cell line 1 and 36° C., 5% CO2 incubator for cell line 2 to obtain the required number of cells to be able to initiate production stage cultures.
For the bioreactor (3 L Applikon) experiments (Examples 1, 2 and 3), 3 L, bioreactors (1.5 L working volume) were initiated at 35° C. (cell line 1) and 36° C. (cell line 2), 30% DO, 200 rpm, pH of 7.1. […]
This method is employed towards the quantification of the acidic species and other charge variants present in cell culture harvest samples. […]
Quantitation is based on the relative area percent of detected peaks. […]
The objective of this experiment was to further evaluate the control of MGO synthesis/MGO protein modification through reduced glucose consumption in a different cell line, Cell line 2. […] As described in Example 3, extracellular MGO quantification was performed for day 7, 8 and 9 for the samples below and percentage of acidic species were quantified using WCX-10 analysis post protein A of cell culture harvests.

Experiment [2] has as its system adalimumab producing cell line 1. Put plainly: Glucose consumption of the culture, cell line 1. Here is the method: (§1) For the bioreactor (3 L Applikon) experiments (Examples 1, 2 and 3), 3 L, bioreactors (1.5 L working volume) were initiated at 35° C. (cell line 1) and 36° C. (cell line 2), 30% DO, 200 rpm, pH of 7.1. In some of the conditions, pH was ramped down to 6.8 in three days and kept at pH 6.8 thereafter. The inclusion of pH ramp for a particular condition is indicated by the final pH in the experimental design. If the final pH is 7.1, then it indicates no pH ramp was performed, whereas if the final pH is 6.8, a pH ramp was performed on day 3 from pH 7.1 to pH 6.8. In some of the conditions, a temperature shift was performed. When temperature shift was performed, the temperature was lowered to 33° C. Again, the conditions where such a temperature shift was performed can be identified from the final temperature in the experimental design. Cultures were run in extended batch mode with the addition of a desired amount of 40% glucose stock solution was fed based on glucose measurements.
To assess if this reduction in MGO modification in the test conditions also corresponded to lower glucose consumption, the specific glucose consumption rate was calculated across the two phases of culture: average over day 0-day 5 and average over day 5-10 (period post temperature shift) (FIG. 4b). The specific glucose consumption rate in the conditions with 2DDG supplementation was lower in both phases. […] In the period post the temperature shift, up to 50% reduction in specific glucose consumption rate relative to that in the control was observed. Thus, a clear correlation has been observed between reduced glucose consumption and the extent of MGO modification of the peptides.
To further assess the applicability of this strategy, the cumulative glucose consumption levels were also evaluated for these conditions in this study (FIG. 6b). This was calculated by using daily glucose concentration measurements via the offline analyzer and by accounting for glucose feeds when added. […]

Experiment [3] relates to adalimumab producing cell line 2. Nature of the experiment: Glucose consumption of the culture, cell line 2. The settings on record: Example 4. The protocol:
as §1
The objective of this experiment was to further evaluate the control of MGO synthesis/MGO protein modification through reduced glucose consumption in a different cell line, Cell line 2. […] As described in Example 3, extracellular MGO quantification was performed for day 7, 8 and 9 for the samples below and percentage of acidic species were quantified using WCX-10 analysis post protein A of cell culture harvests. […]

For the compound `O=CC[C@@H](O)[C@H](O)[C@H](O)CO` [Test 2DDG, 2-Deoxy-D-Glucose], the “percentage of acidic species” value in experiment [1] was determined as 27.2%. Further, the “specific glucose consumption rate” value in experiment [2] (Example 2, 2DDG 0.25 g/l, day 0-day 5 and day 5-10, versus control) is listed as “lower”. Moreover, the glucose consumption result is listed as “significant reduction” in experiment [2] (Example 3, 2DDG supplementation 0.25 g/l) and “reduction” in experiment [3] (0.15 g/l 2DDG). Further, the glucose consumption rate entry in experiment [3] (0.05 g/l 2DDG, compared to control) was “not significantly lower”.

Source of the values: US20160115225A1, “Methods of Reducing Methylglyoxal (MGO) Modification of Recombinant Proteins in Cell Culture” (AbbVie Inc., priority 2014, published 2016).
